Measured values: the NIST ThermoML archive (doi:10.1021/je034162x)

Settings: 101.33 kPa, Liquid, Hot wire method

C=CCCC [1-pentene]
Settings	thermal conductivity [W/m/K]	thermal diffusivity [m2/s]
257.36 K	0.1284	–
257.67 K	0.1283	–
257.93 K	0.1283	–
258.93 K	–	9.28e-08
259.91 K	–	9.28e-08
260.57 K	–	9.25e-08
276.47 K	0.121	–
276.82 K	0.1209	–
277.07 K	0.1203	–
278.11 K	–	8.65e-08
279.18 K	–	8.7e-08
279.9 K	–	8.66e-08
294.04 K	0.1141	–
294.42 K	0.1139	–
294.66 K	0.1139	–
295.8 K	–	8.2e-08
296.87 K	–	8.16e-08
297.67 K	–	8.16e-08
301.07 K	0.1113	–
301.46 K	0.1112	–
301.75 K	0.1111	–
302.88 K	–	7.99e-08
303.99 K	–	7.96e-08
304.8 K	–	7.96e-08

Cc1ccccc1C [1,2-dimethylbenzene]
Settings	thermal conductivity [W/m/K]	thermal diffusivity [m2/s]
257.75 K	0.1368	–
257.96 K	0.1369	–
258.1 K	0.1368	–
258.47 K	–	9.16e-08
259 K	–	9.21e-08
259.35 K	–	9.19e-08
277.07 K	0.1334	–
277.27 K	0.1333	–
277.42 K	0.1333	–
277.79 K	–	8.78e-08
278.28 K	–	8.75e-08
278.66 K	–	8.79e-08
295.56 K	0.1296	–
295.78 K	0.1296	–
295.91 K	0.1294	–
296.29 K	–	8.46e-08
296.81 K	–	8.48e-08
297.15 K	–	8.42e-08
312.07 K	0.1259	–
312.29 K	0.1258	–
312.44 K	0.1257	–
312.82 K	–	8.18e-08
313.34 K	–	8.17e-08
313.7 K	–	8.15e-08
328.72 K	0.1222	–
328.94 K	0.122	–
329.09 K	0.1219	–
329.45 K	–	7.83e-08
329.98 K	–	7.83e-08
330.35 K	–	7.81e-08

C=CCCCC [hex-1-ene]
Settings	thermal conductivity [W/m/K]	thermal diffusivity [m2/s]
259.93 K	0.1304	–
260.19 K	0.1305	–
260.47 K	0.1303	–
261.24 K	–	9.12e-08
262.13 K	–	9.15e-08
263.04 K	–	9.14e-08
275.98 K	0.1247	–
276.28 K	0.1249	–
276.6 K	0.1245	–
277.38 K	–	8.63e-08
278.3 K	–	8.69e-08
279.25 K	–	8.67e-08
295.84 K	0.1181	–
296.26 K	0.1178	–
296.53 K	0.1179	–
297.34 K	–	8.25e-08
298.59 K	–	8.22e-08
299.33 K	–	8.2e-08
301.27 K	0.1161	–
301.73 K	0.116	–
301.96 K	0.1158	–
302.77 K	–	8.05e-08
304.08 K	–	8.06e-08
304.81 K	–	8.04e-08
314.67 K	0.1119	–
315.04 K	0.1115	–
315.38 K	0.1112	–
316.21 K	–	7.67e-08
317.27 K	–	7.71e-08
318.31 K	–	7.68e-08
329.14 K	0.1071	–
329.53 K	0.107	–
329.89 K	0.1068	–
330.76 K	–	7.42e-08
331.81 K	–	7.39e-08
332.96 K	–	7.4e-08

Cc1cc(C)cc(C)c1 [1,3,5-trimethylbenzene]
Settings	thermal conductivity [W/m/K]	thermal diffusivity [m2/s]
258.66 K	0.1434	–
258.83 K	0.1434	–
258.95 K	0.1433	–
259.23 K	–	9.77e-08
259.67 K	–	9.83e-08
259.96 K	–	9.82e-08
276.88 K	0.14	–
277.04 K	0.1398	–
277.16 K	0.1398	–
277.47 K	–	9.49e-08
277.87 K	–	9.44e-08
278.16 K	–	9.45e-08
296.36 K	0.1358	–
296.53 K	0.1356	–
296.66 K	0.1356	–
296.93 K	–	8.99e-08
297.35 K	–	9.01e-08
297.65 K	–	9.02e-08
313.44 K	0.1319	–
313.6 K	0.1317	–
313.73 K	0.1317	–
314.03 K	–	8.71e-08
314.41 K	–	8.63e-08
314.7 K	–	8.63e-08
331.99 K	0.1274	–
332.16 K	0.1274	–
332.28 K	0.1272	–
332.56 K	–	8.28e-08
332.96 K	–	8.25e-08
333.24 K	–	8.21e-08

[2H]c1c([2H])c([2H])c([2H])c([2H])c1[2H] [benzene-d6]
Settings	thermal conductivity [W/m/K]	thermal diffusivity [m2/s]
280.76 K	0.1398	–
281.06 K	0.1397	–
281.26 K	0.1396	–
282.09 K	–	8.1e-08
282.98 K	–	8.15e-08
283.58 K	–	8.12e-08
291.53 K	0.1364	–
291.83 K	0.1363	–
292.04 K	0.1362	–
292.92 K	–	7.93e-08
293.83 K	–	7.96e-08
294.46 K	–	7.95e-08
304.05 K	0.1323	–
304.37 K	0.1322	–
304.59 K	0.1321	–
305.49 K	–	7.7e-08
306.42 K	–	7.69e-08
307.08 K	–	7.69e-08
316.34 K	0.1284	–
316.66 K	0.1283	–
316.89 K	0.1282	–
317.82 K	–	7.46e-08
318.77 K	–	7.45e-08
319.44 K	–	7.44e-08
326.75 K	0.1252	–
327.08 K	0.125	–
327.31 K	0.1249	–
328.26 K	–	7.25e-08
329.22 K	–	7.23e-08
329.88 K	–	7.2e-08

CCc1ccccc1 [ethylbenzene]
Settings	thermal conductivity [W/m/K]	thermal diffusivity [m2/s]
258 K	0.1375	–
258.29 K	0.1374	–
258.5 K	0.1373	–
259.49 K	–	9.45e-08
260.41 K	–	9.43e-08
261.06 K	–	9.41e-08
277.34 K	0.1328	–
277.65 K	0.1327	–
277.88 K	0.1326	–
278.88 K	–	9.04e-08
279.84 K	–	9.02e-08
280.53 K	–	9.02e-08
295.86 K	0.1282	–
296.19 K	0.128	–
296.42 K	0.128	–
297.44 K	–	8.66e-08
298.45 K	–	8.67e-08
299.16 K	–	8.66e-08
312.38 K	0.124	–
312.72 K	0.1238	–
312.96 K	0.1237	–
313.99 K	–	8.29e-08
315.01 K	–	8.28e-08
315.73 K	–	8.28e-08
329.05 K	0.1199	–
329.41 K	0.1197	–
329.66 K	0.1196	–
330.69 K	–	7.97e-08
331.74 K	–	7.96e-08
332.49 K	–	7.95e-08

C=CCCCCCC [oct-1-ene]
Settings	thermal conductivity [W/m/K]	thermal diffusivity [m2/s]
259.69 K	0.1354	–
259.9 K	0.1353	–
260.06 K	0.1353	–
260.46 K	–	9.04e-08
261.02 K	–	9.07e-08
261.42 K	–	9.09e-08
279.34 K	0.1294	–
279.57 K	0.1294	–
279.72 K	0.129	–
280.08 K	–	8.39e-08
280.66 K	–	8.48e-08
281.06 K	–	8.49e-08
296.88 K	0.124	–
297.14 K	0.124	–
297.28 K	0.124	–
297.65 K	–	7.98e-08
298.28 K	–	8e-08
298.61 K	–	8.02e-08
315.82 K	0.1185	–
316.07 K	0.1186	–
316.24 K	0.1186	–
316.57 K	–	7.49e-08
317.19 K	–	7.58e-08
317.61 K	–	7.61e-08
326.44 K	0.1155	–
326.7 K	0.1156	–
326.87 K	0.1156	–
327.18 K	–	7.24e-08
327.82 K	–	7.35e-08
328.26 K	–	7.38e-08

C=CCCCCC [1-heptene]
Settings	thermal conductivity [W/m/K]	thermal diffusivity [m2/s]
262.46 K	0.1325	–
262.75 K	0.1324	–
262.97 K	0.1324	–
263.83 K	–	9.06e-08
264.74 K	–	9.11e-08
265.37 K	–	9.1e-08
280.48 K	0.1268	–
280.8 K	0.1267	–
281.03 K	0.1264	–
281.93 K	–	8.66e-08
282.87 K	–	8.67e-08
283.53 K	–	8.66e-08
297.36 K	0.1213	–
297.71 K	0.1213	–
297.95 K	0.1212	–
298.89 K	–	8.27e-08
299.87 K	–	8.27e-08
300.55 K	–	8.25e-08
320.47 K	0.1144	–
320.83 K	0.1143	–
321.08 K	0.1142	–
322.07 K	–	7.76e-08
323.1 K	–	7.76e-08
323.81 K	–	7.73e-08
